Experimental data: patent US11278526B2, “Compounds and methods for treating lupus” (RECEPTOS LLC, priority 2016, dated 2022)
Read-outs that look alike come from different tables or passages of the source.

Key:
splenocytes = experiment: Splenocyte counts and immunophenotyping of spleen cell subtypes; assay type: in vivo, mice; details: mouse, in vivo
Procedure: To determine the effects of compound 148 on inflammatory infiltrate in the spleen, spleens were weighed at 42 weeks. […] Splenocyte suspensions were then prepared. RBCs were lysed and splenocytes were counted.
Plasmacytoid dendritic cells (pDC) express IFNAR1 (Interferon alpha receptor 1), which amplifies the proinflammatory response to type 1 interferons (e.g., IFNα) that are associated with lupus. IFNAR activity is considered to be an important modulator of signal strength and duration in pDC and subsequent activation of T and B cells in the inflammatory response. pDC counts were measured at termination.
To determine the effects of compound 5 on inflammatory infiltrate in the spleen, spleens were weighed at 42 weeks. […] Splenocyte suspensions were prepared for all three doses. RBCs were lysed and splenocytes were counted.

NZBWF1 mice [1] = experiment: Survival in NZBWF1 SLE mouse model; assay type: in vivo; details: cyclophosphamide 50 mg/kg IP once a week (compound 5 study), Logrank p=0.0017
Procedure: As in Example 2, compound 5 was tested for efficacy in the same NZB×NZW F1 (“NZBWF1”) mouse model for SLE as compound 148. Six groups of NZBWF1 mice (Jackson Laboratories, stock #100008) were used in the study and were acclimated to the research facility for 6 weeks prior to the start of the study. Weekly measurements of proteinuria (excess serum proteins present in the urine) and body weight began at 20 weeks of age. At 22 weeks of age, the mice were assigned to groups in a balanced manner in order to achieve average body weight and average proteinuria measurements across the groups. One “naive” group consisting of 10 mice was euthanized at the start of treatment and used as a source of tissue for analysis. Treatment began at 22 weeks of age.
The five treatment groups were administered cyclophosphamide (positive control, 20 mice; introduced gradually to reduce toxicity (IP, once a week, 10 mg/kg at Weeks 22 and 23 and 50 mg/kg from Week 24 to the end of the study)), vehicle (negative control, 20 mice), or compound 5 (three groups of 20 mice), beginning at 22 weeks of age and observed over the course of 20 weeks. The three groups dosed with compound 5 received 0.3, 1.0, and 3.0 mg/kg PO QD, respectively (20 mice per dosage). Surviving animals were sacrificed at 42 weeks. […] Disease development was evaluated as disclosed in the following examples.

NZBWF1 mice [2] = experiment: Proteinuria scores (urine dip sticks) in NZBWF1 SLE mouse model; assay type: in vivo
Source text: Six groups of NZBWF1 mice (Jackson Laboratories, stock #100008) were used in the study and were acclimated to the research facility for 7 weeks prior to the start of the study. Weekly measurements of proteinuria (excess serum proteins present in the urine) and body weight began at 20 weeks of age. At 23 weeks of age, the mice were assigned to groups in a balanced manner in order to achieve average body weight and average proteinuria measurements across the groups. One “naive” group consisting of 10 mice was euthanized at the start of treatment and used as a source of tissue for analysis. Treatment began at 23 weeks of age.
The three groups dosed with compound 148 received 0.3, 1.0, and 3.0 mg/kg PO QD, respectively (20 mice per dosage). Surviving animals were sacrificed at 42 weeks. […] Disease development was evaluated as disclosed in the following examples.
High levels of proteinuria are a strong indicator of SLE. […] Proteinuria was expressed as a score from 0 to 4 (0=no protein; 1=traces of protein (<30 mg/dL); 2=30-100 mg/dL; 3=100-500 mg/dL; 4=>500 mg/dL).
As in Example 3, proteinuria was measured weekly beginning at 20 weeks using urine dip sticks (Roche Diagnostics Chemstrip 2GP, cat. no. 11895397160, per manufacturer's protocol). Proteinuria was expressed as a score from 0 to 4 (0=no protein; 1=traces of protein (<30 mg/dL); 2=30-100 mg/dL; 3=100-500 mg/dL; 4=>500 mg/dL). […] (In this and the following experiments, the number of mice per group was approximately 20, and statistics were determined by one-way ANOVA with Dunnett's comparison.)

NZBWF1 mice [3] = experiment: Serum blood urea nitrogen (BUN) at termination; assay type: in vivo
Procedure: Lymphocyte counts were measured from whole blood taken at 23, 31, and 36.5 weeks using flow cytometry. Cells were gated for CD4+ T cells, CD8+ T cells, and CD19+ B cells. […] Serum blood urea nitrogen (BUN) was also measured at termination to assess kidney function.
As in Example 4, serum blood urea nitrogen (BUN) was measured at termination to assess kidney function.

NZBWF1 mice [4] = experiment: Kidney weight at termination (42 weeks); assay type: in vivo
Source text: In SLE, inflammatory infiltrates known as Tertiary Lymphatic Tissue (TLT) accumulate in the kidney and spleen, among other tissues. As an indirect measure of disease progression, right and left kidneys were weighed (FIGS. 4A-4B) following termination at 42 weeks.
As in Example 5, left kidneys were weighed (FIG. 43) following termination at 42 weeks.

[5] = NZBWF1 mice, cyclophosphamide IP once a week
Procedure: Compound 148 was tested for efficacy in an art-accepted mouse model for SLE: NZB×NZW F1 (“NZBWF1”) mice develop an autoimmune disease closely resembling SLE. These mice spontaneously produce high levels of anti-dsDNA antibodies, an indicator of SLE, starting after 20 weeks of age. These mice develop hemolytic anemia, proteinuria, and progressive glomerulonephritis mediated by immune complex deposition in the glomerular basement membrane.
Six groups of NZBWF1 mice (Jackson Laboratories, stock #100008) were used in the study and were acclimated to the research facility for 7 weeks prior to the start of the study. Weekly measurements of proteinuria (excess serum proteins present in the urine) and body weight began at 20 weeks of age. At 23 weeks of age, the mice were assigned to groups in a balanced manner in order to achieve average body weight and average proteinuria measurements across the groups. […]
The three groups dosed with compound 148 received 0.3, 1.0, and 3.0 mg/kg PO QD, respectively (20 mice per dosage). […] Disease development was evaluated as disclosed in the following examples. […]
The three groups dosed with compound 5 received 0.3, 1.0, and 3.0 mg/kg PO QD, respectively (20 mice per dosage). […] Disease development was evaluated as disclosed in the following examples.

[6] = cyclophosphamide 50 mg/kg IP once a week (compound 5 study)
[7] = cyclophosphamide 50 mg/kg IP once a week (compound 148 study), p<0.05

O=P1(N(CCCl)CCCl)NCCCO1 (stereo not shown) [cyclophosphamide, reference compound]
Decrease of splenic pDC counts relative to vehicle (splenocytes): 47%
Percent Reduction vs Vehicle: Activated CD4 + T cells (splenocytes): 89%
Percent Reduction vs Vehicle: CD4 + T cells (splenocytes): 77%
Percent Reduction vs Vehicle: CD8 + T cells (splenocytes): 48%
Percent Reduction vs Vehicle: CD11b + Ly6C^hi monocytes (splenocytes): 25%
Percent Reduction vs Vehicle: CD19 + B cells (splenocytes): 91%
Percent Reduction vs Vehicle: Follicular B cells (splenocytes): 93%
Percent Reduction vs Vehicle: Germinal Center B cells (splenocytes): 99%
Percent Reduction vs Vehicle: Marginal Zone B cells (splenocytes): 57%
Percent Reduction vs Vehicle: Marginal Zone Progenitor B cells (splenocytes): 78%
Percent Reduction vs Vehicle: Naive CD4 + T cells (splenocytes): 45%
Percent Reduction vs Vehicle: Plasma cells (splenocytes): 90%
Percent Reduction vs Vehicle: Tfh cells (splenocytes): 97%
Percent Reduction vs Vehicle: Total splenocytes (splenocytes): 73%
Percent Reduction vs Vehicle: Treg cells (splenocytes): 80%
Percent Reduction vs Vehicle: pDC (splenocytes): 64%
Reduction in splenic CD4+ T cell population (splenocytes): 84%
Reduction in splenic CD8+ T cell population (splenocytes): 46%
Reduction in splenic CD19+ B cell population (splenocytes): 92%
Reduction in splenic Follicular (FO) B cells (splenocytes): 96%
Reduction in splenic Germinal Center (GC) B cell population (splenocytes): 99%
Reduction in splenic Marginal Zone (MZ) B cell population (splenocytes): 74%
Reduction in splenic activated CD4+ T cell population (splenocytes): 93%
Reduction in splenic naïve CD4+ T cells (splenocytes): 47%
Reduction in splenic plasma cell population (splenocytes): 18%
Survival compared to vehicle (NZBWF1 mice [1]): improved survival compared to vehicle treated animals
Proteinuria scores relative to vehicle (NZBWF1 mice [2]; [6]): significant improvement relative to vehicle
Proteinuria scores relative to vehicle (NZBWF1 mice [2]; [7]): significant improvement relative to vehicle
Serum BUN at termination vs vehicle (NZBWF1 mice [3]; [6]): significant reduction in serum BUN
Serum BUN at termination vs vehicle (NZBWF1 mice [3]; [7]): significant reduction in serum BUN
Left kidney weight relative to vehicle (NZBWF1 mice [4]; [6]): significantly reduced kidney weight relative to vehicle
Kidney weight relative to vehicle (NZBWF1 mice [4]; [7]): significantly reduced kidney weight relative to vehicle
Body weight ([5]; 50 mg/kg from week 24 (compound 5 study)): increased body weights
Body weight ([5]; 50 mg/kg from week 25 (compound 148 study)): increased body weights
